We go through 17 compounds from publication PMC5372089, “Synthesis and biological evaluation of novel ursolic acid analogues as potential α-glucosidase inhibitors” (Scientific Reports, 2017).

Like-named read-outs stand apart in the source and are kept apart here.

For orientation: IC50 means the concentration that inhibits the measured activity by half.

The target of test [1] is T1, α-glucosidase from baker's yeast (Saccharomyces cerevisiae, UniProt P53341). Briefly: In vitro α-glucosidase inhibition assay (PNPG substrate, absorbance at 405 nm). The class given is biochemical. How it is done: In this assay, α-glucosidase from baker’s yeast has been selected and used in this model according to the procedure described in the previous study with a slight modification. The activity of α-glucosidase was determined by monitoring p-nitrophenol (PNP) released from p-nitrophenol-α-D-glycopyranoside (PNPG) at 405 nm. All examined samples of UA analogues were dissolved in DMSO to generate the stock solution, with the concentrations ranging from 5 μM to 4000 μM. During the enzyme inhibitory assay, each sample’s stock solution was diluted with 0.1 M phosphate buffer solution (pH = 6.8), and the final concentration of enzyme solution was 0.1 U/mL. Then 10 min pre-incubation at 37 °C was conducted. After that, the substrate (PNPG, 1 mmol/L) was added to initiate the reaction. The reaction was incubated for 30 min at 37 °C before it was terminated by adding 1 mol/L Na2CO3 solution, and the optical density value was measured at 405 nm by using a Multimodel Plate Reader (Infinite 200). Each assay was performed three times.
T1 sequence (P53341 whole entry): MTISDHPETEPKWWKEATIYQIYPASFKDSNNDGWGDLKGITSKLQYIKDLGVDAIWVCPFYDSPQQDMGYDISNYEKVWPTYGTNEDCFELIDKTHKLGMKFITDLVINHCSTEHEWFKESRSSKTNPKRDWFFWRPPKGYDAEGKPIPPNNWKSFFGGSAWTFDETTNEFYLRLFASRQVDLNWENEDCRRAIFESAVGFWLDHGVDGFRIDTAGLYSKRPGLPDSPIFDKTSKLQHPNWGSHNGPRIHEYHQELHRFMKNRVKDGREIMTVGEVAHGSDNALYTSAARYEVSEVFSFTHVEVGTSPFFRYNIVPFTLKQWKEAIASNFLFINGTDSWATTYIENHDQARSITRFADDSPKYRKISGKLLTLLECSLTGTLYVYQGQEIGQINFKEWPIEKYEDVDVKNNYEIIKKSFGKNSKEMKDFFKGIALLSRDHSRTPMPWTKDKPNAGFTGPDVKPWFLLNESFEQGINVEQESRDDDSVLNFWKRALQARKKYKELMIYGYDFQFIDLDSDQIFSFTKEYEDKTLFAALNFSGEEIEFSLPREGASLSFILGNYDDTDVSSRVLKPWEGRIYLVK
The enzyme activity was measured at a fixed substrate concentration, in which a series of sample concentrations were introduced. The IC50 value was […] relative to a control assay with no inhibitor added.
The α-glucosidase inhibition assay was performed according to the method of Worawalai[32] with a slight modification. The α-glucosidase enzyme (0.1 U/mL) and substrate (1 mM p-nitrophenyl-α-D-glucopyranoside) were dissolved in 0.1 M phosphate buffer, pH 6.8. 10 μL of each synthesized analogue (1 mg/mL in DMSO) was pre-incubated with 8 μL of α-glucosidase at 37 °C for 10 min. A 100 μL of substrate solution was then added to the reaction mixture, which was further incubated at 37 °C for 30 min. Then, the reaction was terminated by adding 100 μL of 1 M Na2CO3 solution. Enzymatic activity was quantified by measuring the absorbance at 405 nm with a use of a Multimodel Plate Reader (Infinite 200). The percentage of inhibition was calculated by using [(A0 − A1)/A0] × 100%, where A0 was the absorbance without the sample, and A1 was the absorbance with the sample. The IC50 value was determined from a plot of the percentage of inhibition versus the sample concentration.

Test [2] concerns the target T1, α-glucosidase from baker's yeast. Also on record: method as in PMID 26406581. Conditions: UA hydroxyl group oxidized into ketone; cited from earlier work.
Where [3] appears, read: UA-O and analogues UA-O-a~UA-O-j (Table 2), enzyme 0.1 U/mL, PNPG 1 mM, pH 6.8, 37 °C, mean ± SD, read-out: IC50.

Take “(1S,2R,4R,6aS,6bR,12aR,Z)-1,2,6a,6b,9,9,12a-heptamethyl-10-oxo-11-((6-(trifluoromethyl) pyridin-3-yl) methylene)-1,2,3,4,4a,5,6,6a,6b,7,8,8a,9,10,11,12,12a,12b,13,14b-icosahydropicene-4-carboxylic acid [UA-O-f]”: the IC50 in test [1] (setting [3]) came to 4.87 ± 0.41 µM.

Regarding `C[C@@H]1CC[C@]2(C(=O)O)CC[C@]3(C)C(=CCC4[C@@]5(C)CCC(=O)C(C)(C)C5CC[C@]43C)C2[C@H]1C` (stereo partly drawn) [UA-O], the IC50 in test [1] (setting [3]) and in test [2] was 2.47 ± 0.14 µM each time.

As to “(1S,2R,4R,6aS,6bR,12aR)-11-((Z)-3-chlorobenzylidene)-1,2,6a,6b,9,9,12a-heptamethyl-10-oxo-1,2,3,4,4a,5,6,6a,6b,7,8,8a,9,10,11,12,12a,12b,13,14b-icosahydropicene-4-carboxylic acid [UA-O-e]”, the 50% inhibitory concentration (IC50) in test [1] (setting [3]) came out at 3.22 ± 0.78 µM.

“(1S,2R,4R,6aS,6bR,12aR)-11-((Z)-benzylidene)-1,2,6a,6b,9,9,12a-heptamethyl-10-oxo-1,2,3,4,4a,5,6,6a,6b,7,8,8a,9,10,11,12,12a,12b,13,14b-icosahydropicene-4-carboxylic acid [UA-O-a]”: the concentration for half-maximal inhibition (IC50) in test [1] (setting [3]) stood at 1.17 ± 0.09 µM.

Consider “(1S,2R,4R,6aS,6bR,12aR)-1,2,6a,6b,9,9,12a-heptamethyl-11-((Z)-4-nitrobenzylidene)-10-oxo-1,2,3,4,4a,5,6,6a,6b,7,8,8a,9,10,11,12,12a,12b,13,14b-icosahydropicene-4-carboxylic acid [UA-O-d]”, for which, in test [1] (setting [3]), the concentration for half-maximal inhibition (IC50) was found to be 1.49 ± 0.14 µM.

Regarding “(1S,2R,4R,6aS,6bR,12aR)-1,2,6a,6b,9,9,12a-heptamethyl-10-oxo-11-((Z)-4-(trifluoromethyl) benzylidene)-1,2,3,4,4a,5,6,6a,6b,7,8,8a,9,10,11,12,12a,12b,13,14b-icosahydropicene-4-carboxylic acid [UA-O-i]”, the IC50 in test [1] (setting [3]) was 0.71 ± 0.04 µM.

As for “(1S,2R,4R,6aS,6bR,12aR,Z)-11-((E)-3-(4-fluorophenyl) allylidene)-1,2,6a,6b,9,9,12a-heptamethyl-10-oxo-1,2,3,4,4a,5,6,6a,6b,7,8,8a,9,10,11,12,12a,12b,13,14b-icosahydropicene-4-carboxylic acid [UA-O-c]”, the 50% inhibitory concentration (IC50) in test [1] (setting [3]) was 7.49 ± 0.29 µM.

In test [1], `C[C@@H]1CC[C@]2(C(=O)O)CC[C@]3(C)C(=CCC4[C@@]5(C)CC[C@H](OC(=O)c6ccccc6)C(C)(C)C5CC[C@]43C)C2[C@H]1C` (stereo partly drawn) [UA-01] yielded an IC50 of 4.98 ± 0.21 µM.

For “(1S,2R,4R,6aS,6bR,12aR,Z)-1,2,6a,6b,9,9,12a-heptamethyl-10-oxo-11-(thiazol-2-ylmethylene)-1,2,3,4,4a,5,6,6a,6b,7,8,8a,9,10,11,12,12a,12b,13,14b-icosahydropicene-4-carboxylic acid [UA-O-h]”, the half-maximal inhibitory concentration (IC50) in test [1] (setting [3]) came out at 3.32 ± 0.17 µM.

For `C[C@@H]1CC[C@]2(C(=O)O)CC[C@]3(C)C(=CCC4[C@@]5(C)CC[C@H](OC(=O)c6ccco6)C(C)(C)C5CC[C@]43C)C2[C@H]1C` (stereo partly drawn) [UA-02], the IC50 in test [1] was 2.51 ± 0.02 µM.

The compound `C[C@@H]1CC[C@]2(C(=O)O)CC[C@]3(C)C(=CCC4[C@@]5(C)CC[C@H](OC(=O)C(Cl)Cl)C(C)(C)C5CC[C@]43C)C2[C@H]1C` (stereo partly drawn) [UA-03] registered a half-inhibitory concentration (IC50) in test [1] of 6.72 ± 0.33 µM.

With “(1S,2R,4R,6aS,6bR,10S,12aR)-1,2,6a,6b,9,9,12a-heptamethyl-10-((4-methylpiperazine-1-carbonyl) oxy)-1,2,3,4,4a,5,6,6a,6b,7,8,8a,9,10,11,12,12a,12b,13,14b-icosahydropicene-4-carboxylic acid [UA-05]”, the half-maximal inhibitory concentration (IC50) in test [1] (UA ester derivatives (Table 1), enzyme 0.1 U/mL, PNPG 1 mM, pH 6.8, 37 °C, mean ± SD, read-out: IC50) is 15.2 ± 0.47 µM.

For “(1S,2R,4R,6aS,6bR,12aR)-1,2,6a,6b,9,9,12a-heptamethyl-11-((Z)-4-methylbenzylidene)-10-oxo-1,2,3,4,4a,5,6,6a,6b,7,8,8a,9,10,11,12,12a,12b,13,14b-icosahydropicene-4-carboxylic acid [UA-O-j]”, the half-inhibitory concentration (IC50) in test [1] (setting [3]) is 1.27 ± 0.2 µM.

As to “(1S,2R,4R,6aS,6bR,12aR,Z)-1,2,6a,6b,9,9,12a-heptamethyl-10-oxo-11-((E) -3-phenylallylidene)-1,2,3,4,4a,5,6,6a,6b,7,8,8a,9,10,11,12,12a,12b,13,14b-icosahydropicene-4-carboxylic acid [UA-O-b]”, the 50% inhibitory concentration (IC50) in test [1] (setting [3]) stood at 10.3 ± 0.55 µM.

Regarding `C[C@@H]1CC[C@]2(C(=O)O)CC[C@]3(C)C(=CCC4[C@@]5(C)CC[C@H](OC(=O)c6ccc(Br)cc6F)C(C)(C)C5CC[C@]43C)C2[C@H]1C` (stereo partly drawn) [UA-04], the half-maximal inhibitory concentration (IC50) in test [1] was 3.94 ± 0.1 µM.

As to `C[C@@H]1CC[C@]2(C(=O)O)CC[C@]3(C)C(=CCC4[C@@]5(C)CC[C@H](O)C(C)(C)C5CC[C@]43C)C2[C@H]1C` (stereo partly drawn) [UA, (1S,2R,4aS,6aS,6bR,10S,12aR) -10-hydroxy-1,2,6a,6b,9,9,12a-heptamethyl-1,2,3,4,4a,5,6,6a,6b,7,8,8a,9,10,11,12,12a,12b,13,14b-icosahydropicene-4a-carboxylic acid, reference compound], half-maximal inhibition in test [1] (IC50) was put at 5.08 ± 0.7 µM.

For the compound “(1S,2R,4R,6aS,6bR,12aR,Z)-1,2,6a,6b,9,9,12a-heptamethyl-10-oxo-11-(pyrazin-2-ylmethylene)-1,2,3,4,4a,5,6,6a,6b,7,8,8a,9,10,11,12,12a,12b,13,14b-icosahydropicene-4-carboxylic acid [UA-O-g]”, in test [1] (setting [3]), the half-maximal inhibitory concentration (IC50) is 7.87 ± 0.34 µM.
